Reference: US20260206761A1, “HETEROARYL-TRIAZOLE COMPOUNDS AS PESTICIDES” (Bayer Aktiengesellschaft, priority 2019, published 2026)

Legend:
Assay type in all cases: in vivo
[1] = test system: larvae of the banded cucumber beetle (Diabrotica balteata); assay: Diabrotica balteata spray test; conditions: 168 h, after 7 days, read-out: activity (efficacy: seedlings grown); for pest or weed control at 100 g/ha: application rate 100 g/ha (=32 pg/well)
Summary of the method: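 Wheat seedlings, germinated 1 day on agar (5 seeds/well), sprayed with active compound in acetone/DMF diluted in water containing 1000 ppm emulsifier, then infested with 10-20 D. balteata larvae. Efficacy (%) scored after 7 days: 100% = seedlings grown as untreated uninfested control, 0% = no seedlings grown.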

[2] = test system: green peach aphid (Myzus persicae); assay: Myzus persicae oral test; conditions: 120 h, application rate 4 ppm, after 5 days
Summary of the method: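 Oral uptake format: water-diluted acetone concentrate of compound is blended into IPL41 medium carrying 33%+15% sugar and offered under a parafilm membrane. Percentage of dead insects is recorded after 5 days.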

[3] = test system: adult unfed cat fleas (Ctenocephalides felis); assay: Ctenocephalides felis oral test; conditions: 48 h, read-out: activity (mortality)
Summary of the method: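 About 20 adult unfed fleas fed through parafilm on cattle blood containing compound (DMSO stock diluted in blood), blood held at 37 °C and fleas at room temperature. Mortality (%) scored after 2 days.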

[4] = test system: larvae of the southern green stink bug (Nezara viridula); assay: Nezara viridula spray test; conditions: 96 h, after 4 days; for mortality at 100 g/ha: application rate 100 g/ha; for mortality at 500 g/ha: application rate 500 g/ha
Summary of the method: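 Compound in acetone/dimethylformamide, diluted in water with 1000 ppm alkylarylpolyglycol ether emulsifier, sprayed onto barley plants carrying stink bug larvae. Mortality (%) scored after 4 days, 100% meaning all insects killed.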

[5] = test system: adult engorged female ticks (Rhipicephalus microplus); assay: Rhipicephalus (Boophilus) microplus injection test; conditions: 168 h, egg deposition after 7 days, read-out: activity (efficacy: infertile eggs); for pest or weed control at 4 pg: application rate 4 pg/animal; for pest or weed control at 0.02 mg: application rate 20 μg/animal
Summary of the method: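 Efficacy is scored from egg fertility, with 100% meaning every egg infertile and 0% every egg fertile. Five engorged females per test received 1 μL DMSO solution abdominally. Eggs of unclear fertility were kept until hatching, about 42 days.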

[6] = test system: adult cat fleas (Ctenocephalides felis); assay: Ctenocephalides felis in-vitro contact test, adult cat flea; conditions: application rate 5 μg/cm^2 (=500 g/ha), after 48 hours, read-out: activity (efficacy: fleas dead or moribund)
Experimental: Ctenocephalides felis—In-Vitro Contact Tests Adult Cat Flea
9 mg compound is solved in 1 mL acetone and diluted with acetone to the desired concentration. 250 μL of the test solution is filled in 25 mL glass test tubes and homogeneously distributed on the inner walls by rotation and tilting on a shaking device (2 h at 30 rpm). With a compound concentration of 900 ppm, an inner surface of 44.7 cm^2 and a homogeneous distribution, a dose of […] is achieved.
After the solvent has evaporated, each test tube is filled with 5-10 adult cat fleas (Ctenocephalides felis), closed with a perforated lid and incubated in a lying position at room temperature and relative humidity. After 48 hours efficacy is determined. The fleas are patted on the ground of the tubes and are incubated on a heating plate at 45-50° C. for at most 5 minutes. Immotile or uncoordinated moving fleas, which are not able to escape the heat by climbing upwards, are marked as dead or moribund.
An efficacy of 100% means all fleas are dead or moribund; 0% means no fleas are dead or moribund.

[7] = test system: Rhipicephalus microplus larvae (strain Parkhurst, resistant against synthetic pyrethroids); assay: Rhipicephalus (Boophilus) microplus in-vitro contact test, larval cattle tick; conditions: after 48 hours, read-out: activity (efficacy: larvae dead or moribund); for pest or weed control at 100 g/ha: application rate 1 pg/cm^2 (=100 g/ha); for pest or weed control at 500 g/ha: application rate 5 pg/cm^2 (=500 g/ha)
Summary of the method: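 Acetone solutions coated onto inner walls of glass tubes by rotation (900 ppm giving 5 μg/cm^2); after evaporation, 20-50 larvae added per tube and held at 27° C., 85% relative humidity. Efficacy read after 48 h from negative geotactic behaviour; 100% = all larvae dead or moribund.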

[8] = test system: fall armyworm larvae (Spodoptera frugiperda); assay: Spodoptera frugiperda spray test; conditions: 168 h, read-out: activity (mortality)
Summary of the method: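 Compound in acetone/DMF, diluted in water with 1000 ppm alkylarylpolyglycol ether emulsifier, sprayed on maize leaf sections. Dried leaves infested with fall armyworm larvae; % mortality after 7 days (100% = all killed, 0% = none).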

[9] = test system: adult brown dog ticks (Rhipicephalus sanguineus); assay: Rhipicephalus sanguineus in-vitro contact test, adult brown dog ticks; conditions: after 48 hours, read-out: activity (efficacy: ticks dead or moribund); for pest or weed control at 100 g/ha: application rate 1 pg/cm^2 (=100 g/ha); for pest or weed control at 5 µg/cm2, 500 g/ha: application rate 5 μg/cm^2 (=500 g/ha)
Summary of the method: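 Compound in acetone was coated onto inner walls of glass tubes by rotation (2 h, 30 rpm); 900 ppm gives 5 μg/cm^2. After drying, 5-10 adult ticks were enclosed per tube at room temperature; after 48 h, heat-escape test at 45-50° C scored dead/moribund ticks as % efficacy.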

[10] = test system: green peach aphid (Myzus persicae); assay: Myzus persicae spray test; conditions: 120 h, after 5 days; for mortality at 100 g/ha: application rate 100 g/ha
Experimental: Myzus persicae—Spray Test
Solvent: 78.0 parts by weight acetone • 1.5 parts by weight dimethylformamide
Emulsifier: alkylarylpolyglycol ether
To produce a suitable preparation of active compound, 1 part by weight of active compound is mixed with the stated amount of solvents and is diluted with water, containing an emulsifier concentration of 1000 ppm, to the desired concentration. Further test concentrations are prepared by dilution with emulsifier containing water.
Chinese cabbage (Brassica pekinensis) leaf disks infected with all instars of the green peach aphid (Myzus persicae), are sprayed with a preparation of the active ingredient of the desired concentration.
After 5 days mortality in % is determined. 100% means all aphids have been killed and 0% means none of the aphids have been killed.

Row | Structure (SMILES) | pest or weed control at 100 g/ha [1] [%] | pest or weed control at 500 g/ha ([1]; application rate 500 g/ha (=160 pg/well)) [%] | mortality at 4 ppm [2] [%] | mortality at 100 ppm [3] [%] | mortality at 100 g/ha [4] [%] | mortality at 500 g/ha [4] [%] | pest or weed control at 4 pg [5] [%] | pest or weed control at 0.02 mg [5] [%] | pest or weed control at 5 µg/cm2 [6] [%] | pest or weed control at 100 g/ha [7] [%] | pest or weed control at 500 g/ha [7] [%] | mortality at 100 g/ha [8] [%] | pest or weed control at 100 g/ha [9] [%] | pest or weed control at 5 µg/cm2, 500 g/ha [9] [%] | mortality at 100 g/ha [10] [%] | mortality at 500 g/ha ([10]; application rate 500 g/ha) [%]
1 | CC(NC(=O)c1cc(Cl)cc(S(C)(=O)=O)c1)c1nc(C(F)F)nn1-c1ncccn1 (stereo not drawn) [I-5] | 100 | 100 | 100 | 100 | 90 | 90 | 100 | 100 | 80 | – | – | – | – | – | – | –
2 | CCS(=O)(=O)c1cc(Cl)cc(C(=O)N[C@@H](C)c2nc(C3CC3)nn2-c2ncc(Cl)cn2)c1 [I-24] | – | – | 100 | 90 | 100 | – | 100 | 100 | 80 | 100 | 100 | 100 | 100 | 80 | – | –
3 | COc1nc([C@H](C)NC(=O)c2cc(Cl)cc(S(C)(=O)=O)c2)n(-c2ccc(Cl)cn2)n1 [I-45] | 100 | – | 100 | – | – | – | 100 | – | 100 | 90 | 90 | 100 | – | – | 90 | –
4 | C[C@H](NC(=O)c1cc(C(F)F)cc(S(C)(=O)=O)c1)c1nc(C2CC2)nn1-c1ccc(C#N)cn1 [I-51] | 100 | – | 100 | 100 | – | – | 100 | – | 90 | 100 | 100 | 100 | – | – | – | –
5 | C[C@H](NC(=O)c1cc(Cl)cc(S(C)(=O)=O)c1)c1nc(C2CC2)nn1-c1ncc(Cl)cn1 [I-61] | 100 | – | 100 | – | 100 | 100 | – | – | 100 | 100 | 100 | 100 | 80 | 100 | 90 | 90
